In patent US7749534B2, “Pharmaceutical composition comprising oxoplatin, the salts and derivatives thereof” (Riemser Arzneimittel AG, priority 2003, dated 2010):

Legend:
[1] = tested on: CaCo-2 Colon; assay: Formazan test, cis-oxoplatin vs cis-oxoplatin Ca; type: cell-based, human; conditions: Table 4, formazan test
Procedure: (§1) The effect of cis-oxoplatin Ca and cis-oxoplatin was compared on 10 cell lines (Table 4).
(§2) (IC50 values specified in μg/ml; the test was performed as a formazan test).

[2] = tested on: CRO2B Carcinoid; assay: Formazan test, cis-oxoplatin vs cis-oxoplatin Ca; type: cell-based, human; conditions: Table 4, formazan test
Procedure: as §1, §2

[3] = tested on: BxPC3 Pancreas; assay: Formazan test, cis-oxoplatin vs cis-oxoplatin Ca; type: cell-based, human; conditions: Table 4, formazan test
Procedure: as §1, §2

[4] = tested on: BT20 Breast; assay: Formazan test, cis-oxoplatin vs cis-oxoplatin Ca; type: cell-based, human; conditions: Table 4, formazan test
Procedure: as §1, §2

[5] = tested on: MDA-MB-435 Breast; assay: Formazan test, cis-oxoplatin vs cis-oxoplatin Ca; type: cell-based, human; conditions: Table 4, formazan test
Procedure: as §1, §2

[6] = tested on: T47D Breast; assay: Formazan test, cis-oxoplatin vs cis-oxoplatin Ca; type: cell-based, human; conditions: Table 4, formazan test
Procedure: as §1, §2

[7] = tested on: HT29 Colon; assay: Formazan test, cis-oxoplatin vs cis-oxoplatin Ca; type: cell-based, human; conditions: Table 4, formazan test
Procedure: as §1, §2

[8] = tested on: Du145 Prostate; assay: Formazan test, cis-oxoplatin vs cis-oxoplatin Ca; type: cell-based, human; conditions: Table 4, formazan test
Procedure: as §1, §2

[9] = tested on: Colo205 Colon; assay: Formazan test, cis-oxoplatin vs cis-oxoplatin Ca; type: cell-based, human; conditions: Table 4, formazan test
Procedure: as §1, §2

[10] = tested on: SW480 Colon; assay: Formazan test, cis-oxoplatin vs cis-oxoplatin Ca; type: cell-based, human; conditions: Table 4, formazan test
Procedure: as §1, §2

[11] = tested on: 10 cell lines; assay: Formazan test, mean over 10 cell lines (Table 4); type: cell-based, human; conditions: mean ±SEM over the 10 cell lines of Table 4
Procedure: as §1, §2

[12] = Platinum in the kidneys after injection; type: in vivo; conditions: 20 days after injection
From the text: A pharmaceutical agent comprising cis-diammoniumdichloro-trans-dihydroxoplatinum(IV) and/or its salts or derivatives incorporated in the base materials defined according to the invention enables effective treatment of tumors. […] In a particularly preferred fashion, salts are used, especially potassium, lithium, sodium, magnesium, barium, zinc, manganese, silver, copper, vanadium or calcium salts, wherein the anions can be e.g. chlorides, sulfates, phosphates, nitrates or carbonates or others. Other elements capable of forming salts are well-known to those skilled in the art, e.g. all elements from the main groups I to V of the Periodic Table of the Elements, as well as the elements from the subgroups I to VIII; all of the above-mentioned elements of the Periodic Table of the Elements can form cis-oxoplatinum salts.

[13] = tested on: tumor rats developing both internal and external tumors; assay: Therapeutic effect of tablets, ointments and infusion solutions in tumor rats; type: in vivo
Procedure: In a first test series, tablets, ointments and infusion solutions were tested on various tumor rats developing both internal and external tumors. The other drugs according to the invention were tested in additional, subsequent test series. […] In a preparation of 5 mg/ml solution, the infusion solution included 5 mg of cis-oxoplatin, 9 mg of benzyl alcohol, 2 mg of Polysorbate 80, 650 mg of 70% sorbitol solution, and 500 mg of water.
The tablets were administered in the form of a feed admixture. Infusion of the infusion solution was effected according to common laboratory practice via infusion tube.
Tumor effectiveness was established by weight determination and measuring the outer areas of degenerate tissue. As a comparison, the tumor effectiveness was also tested using an infusion solution comprising oxoplatin in sodium chloride solution and by means of direct oral administration of oxoplatin and by applying oxoplatin powder placed on the tumor area on the back of the laboratory animal by means of a bandage. Furthermore, tablets comprising cis-oxoplatin and sodium hydrogen carbonate or sodium alginate were tested.

[14] = tested on: HT29, SW480, SK-OV4, PC3, SIM, CaCo-2, DU145 and CRO2B cells; assay: Growth inhibition, cis-oxoplatin vs sodium salt, summary over cell lines (Table 2); type: cell-based, human; conditions: CaCo-2, DU145, CRO2B
Procedure: (§3) Growth inhibition tests on various human cell lines show the different activities of cisplatin, cis-oxoplatin and oxaliplatin. […] The following Table illustrates the results produced with cisplatin, oxoplatin, carboplatin and oxaliplatin (the values specified are IC50 values in μg/ml, i.e., the concentration where 50% of the cells survive, nd=not determined; res=resistant=non-sensitive or IC50 value cannot be determined at a concentration of up to 40 μg/ml; IC=inhibition concentration).
The activities differ according to the cell line.

[15] = biological target: T1, trypsin (Bos taurus, UniProt P00760); assay: Protease inhibition; type: biochemical; conditions: at concentrations comparable to cisplatin
T1 construct: gene PRSS1
T1 sequence (P00760 24-246): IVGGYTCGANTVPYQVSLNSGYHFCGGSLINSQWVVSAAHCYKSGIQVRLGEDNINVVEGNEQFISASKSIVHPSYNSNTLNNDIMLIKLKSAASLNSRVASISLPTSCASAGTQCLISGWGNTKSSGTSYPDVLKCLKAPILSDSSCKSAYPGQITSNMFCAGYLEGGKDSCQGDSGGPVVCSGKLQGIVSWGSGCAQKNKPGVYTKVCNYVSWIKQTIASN
From the text: (§4) The pharmaceutical agents according to the invention, which can be produced using said kit, are capable of binding directly to a DNA. The cis-platinum compounds according to the invention have an octahedral configuration. Consequently, cis-oxoplatin in the meaning of the invention can form both intra- and inter-strand DNA complexes. Due to the specific structure of cis-oxoplatin, in contrast to cisplatin, the compounds of the invention form multiple bonds with DNA strands. Owing to the inter-strand-crosslinker complexes and intra-strand-crosslinker complexes, the compounds of the invention show advantageous specific cytostatic effects in anti-tumor therapy. The DNA adducts of the compounds according to the invention show higher charge of the platinum central atom and further have two additional ligands bound to this center. […] Potency and effectiveness of the inventive pharmaceutical agents comprising cis-oxo-platinum(IV) are largely independent of the form of application of the agents. The agents can be administered perorally, orally, rectally, subcutaneously, intramuscularly, intravenously and intraperitoneally.

[16] = tested on: α-chymotrypsin; assay: Protease inhibition; type: biochemical; conditions: at concentrations comparable to cisplatin
From the text: as §4

[17] = tested on: various human cell lines; assay: Growth inhibition tests, overall comparison (Table 1 panel); type: cell-based
Procedure: as §3

[18] = tested on: panel of cell lines; assay: Cytotoxic activity of TRAXO, summary over 19 cell lines; type: cell-based, human; conditions: for sensitivity of cell lines: T-47D and BxPC3
Procedure: trans-Oxoplatin was tested on a panel of cell lines, using double steps and an initial concentration of 40 μg/ml. As the IC50 values were not reached in most cases, cell survival at the highest concentration is indicated.
Cell lines sensitive to cis-oxoplatin, such as T-47D and BxPC3, are non-sensitive to TRAXO. The salts of the trans-oxoplatin compounds may have a different therapeutic potential and different effectiveness against particular human cancer cells, cell lines and tumors.

| SMILES | IC50 [1] | IC50 [2] | IC50 [3] | IC50 [4] | IC50 [5] | IC50 [6] | IC50 [7] | IC50 [8] | IC50 [9] | IC50 [10] | level of platinum compound in the kidneys [12] | sensitivity of cell lines [18] | also measured |
| --- | --- | --- | --- | --- | --- | --- | --- | --- | --- | --- | --- | --- | --- |
| N.N.N.N.[Ca+2].[O-][Pt]([OH])([Cl])[Cl].[O-][Pt]([OH])([Cl])[Cl] [Oxoplatin Ca, cis-oxoplatin calcium salt] | 0.87 µg/mL | 2.20 µg/mL | 30.0 µg/mL | 3.5 µg/mL | 12.0 µg/mL | 3.6 µg/mL | 8.0 µg/mL | 14.5 µg/mL | 13.5 µg/mL | 2.5 µg/mL |  |  | IC50 (±SEM) mean value for all cell lines [11]: 9.1 ± 2.8 µg/mL |
| N.N.[Cl][Pt][Cl] [Cis-platin, cisplatin, reference compound] |  |  |  |  |  |  |  |  |  |  | approximately as high as one hour following injection |  |  |
| N.N.[Cl-].[Cl-].[OH-].[OH-].[Pt+4] [cis-Oxoplatin, cis-diammoniumdichloro-trans-dihydroxoplatinum(IV)] | 1.52 µg/mL | 3.0 µg/mL | 26.0 µg/mL | 3.75 µg/mL | 16.5 µg/mL | 2.5 µg/mL | 13.5 µg/mL | 19.0 µg/mL | 29.0 µg/mL | 8.2 µg/mL | largely free of said compound | sensitive | elimination [13]: rapidly eliminated; irritations in the surrounding tissue [13]: irritations in the surrounding tissue; tumor growth ([13]; no base materials): reduction of tumor growth; IC50 values of these cells (mean) [14]: 10.5 ± 6.4 µg/mL; inhibition of proteases [15]: does not inhibit; inhibition of proteases [16]: does not inhibit; activity compared with oxaliplatin and carboplatin [17]: activity similar to that of oxaliplatin, but higher activity than carboplatin |
| [NH2][Pt]([NH2])([OH])([OH])([Cl])[Cl] [TRAXO, trans-Oxoplatin] |  |  |  |  |  |  |  |  |  |  |  | non-sensitive | activity against cell lines ([18]; SW 620, G-292, HOS, ACHN, HL-60, WI-38): considerable activity |
